Test results as given in patent publication US6521623B1, “N,N'-disubstituted benzimidazolone derivatives with affinity at the serotonin and dopamine receptors” (Boehringer Ingelheim Pharma KG, priority 2000, dated 2003).
pIC50: −log10 of the molar value. Read-outs that look alike come from different tables or passages of the source.

Assays:
5-HT1A = molecular target: T1, 5-HT1A (Homo sapiens, UniProt P08908); assay: 5HT1A Radioligand Receptor Binding Assay ([3H]-8-OH-DPAT, CHO cell membranes); set-up: expressed in transfected cells; host or cells: CHO cells; conditions: for 5-HT1A Receptor Binding Assay % inhibition (10^−7 M): compound 10^−7 M, singlicate, [3H]-8-OH-DPAT 0.6-0.7 nM
T1 sequence (P08908 1-422): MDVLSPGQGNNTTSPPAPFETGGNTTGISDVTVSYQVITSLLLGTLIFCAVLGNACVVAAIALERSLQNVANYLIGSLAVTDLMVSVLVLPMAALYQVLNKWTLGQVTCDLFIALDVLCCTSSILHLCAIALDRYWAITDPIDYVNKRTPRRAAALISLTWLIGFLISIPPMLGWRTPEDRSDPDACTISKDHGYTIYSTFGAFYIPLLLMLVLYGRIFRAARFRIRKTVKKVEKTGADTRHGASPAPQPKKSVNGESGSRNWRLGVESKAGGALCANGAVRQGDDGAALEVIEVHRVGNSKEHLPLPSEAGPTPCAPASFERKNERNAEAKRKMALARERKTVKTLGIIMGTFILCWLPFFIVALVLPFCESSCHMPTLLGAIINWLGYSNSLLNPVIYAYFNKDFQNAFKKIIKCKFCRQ
Procedure: 5HT1A Radioligand Receptor Binding Assay
Membranes from CHO cells, expressing 5-HT1A human receptors were suspended in incubation buffer.
Binding assays were performed in MultiProbe 204 pipetting system (Packard), according to a predetermined mapping, consistent with the software Screen. The compounds were tested in singlicate at one concentration (10^−7 M) in a total volume of 1000 μl. 980 μl of diluted membranes, 10 μl DMSO or unlabelled ligand and 10 μl of [^3H]-8-OH-DPAT (0.6-0.7 nM) were incubated for 60 minutes at 27° C. The reaction was stopped by rapid filtration through Tomtec Cell Harvester (48 wells) using Filtermat B (presoaked in 0.1% PEI) filters. Filters were washed with ice-cold 50 mM Tris-HCl (pH 7.4) buffer (9×700 μl), dried, covered with MeltiLex B/HS scintillator sheets (Wallac) and heated at 80° C. to 90° C. for about 10 minutes, transferred into plastic sample bags (Wallac), sealed, and put into 1024 Beta Plate scintillation counter (Wallac). Non-specific binding was determined in the presence of 5-HT (10^−5 M).
The specific radioligand binding to the receptor was defined by the difference between total binding and non-specific binding, determined in the presence of an excess of unlabelled ligand. Results were expressed as percentage of control specific binding obtained in the presence of the compounds. The affinity values (IC50) for the compounds were obtained by a nonlinear least squares regression analysis on the basis of a one binding site model.

D4 human receptors = molecular target: T2, D4 human receptors (Homo sapiens, UniProt P21917); assay: D4 Radioligand Receptor Binding Assay ([3H] YM-09151-2, CHO cell membranes); conditions: compound 10^−7 M, singlicate, [3H] YM-09151-2 0.15-0.25 nM
T2 construct: expressed in transfected cells; host or cells: CHO cells
T2 sequence (P21917 1-419): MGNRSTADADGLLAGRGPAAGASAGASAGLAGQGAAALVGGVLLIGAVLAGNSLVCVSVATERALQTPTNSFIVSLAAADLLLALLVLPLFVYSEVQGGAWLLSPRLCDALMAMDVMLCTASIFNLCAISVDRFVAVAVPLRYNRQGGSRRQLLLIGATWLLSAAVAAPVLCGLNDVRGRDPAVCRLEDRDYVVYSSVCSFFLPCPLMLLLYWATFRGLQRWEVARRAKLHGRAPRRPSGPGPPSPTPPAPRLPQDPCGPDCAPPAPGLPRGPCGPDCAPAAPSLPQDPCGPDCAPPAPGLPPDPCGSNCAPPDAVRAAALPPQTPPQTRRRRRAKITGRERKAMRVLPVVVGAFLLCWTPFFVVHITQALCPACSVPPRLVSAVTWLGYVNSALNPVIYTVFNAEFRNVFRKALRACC
Procedure: D4 Radioligand Receptor Binding Assay
Membranes from CHO cells expressing D4 human receptors, were suspended in incubation buffer.
Binding assays were performed in MultiProbe 204 pipetting system (Packard), according to a predetermined mapping, consistent with the software Screen. The compounds were tested in singlicate at one concentration (10^−7 M) in a total volume of 1000 μl (980 μl of diluted membranes, 10 μl DMSO or unlabelled ligand and 10 μl of [^3H] YM-09151-2 (0.15-0.25 nM). After incubation for 120 minutes at 27° C., the reaction was stopped by rapid filtration through Tomtec Cell Harvester (48 wells) using Filtermat B (presoaked in 0.1% PEI) filters. Filters were washed with ice-cold 50 mM Tris-HCl (pH 7.4) buffer (9×700 μl), dried, covered with MeltiLex B/HS (Wallac) scintillator sheets and heated in oven at 80° C. to 90° C. for about 10 minutes, transferred into plastic sample bags (Wallac), sealed, and put into 1024 Beta Plate scintillation counter (Wallac). Non-specific binding was determined in the presence of clozapine dissolved in DMSO to a final concentration of 10^−5 M.
The specific radioligand binding to the receptor was defined by the difference between total binding and non-specific binding, determined in the presence of an excess of unlabelled ligand. Results were expressed as percentage of control specific binding obtained in the presence of the compounds.

[1] = [3H]-8-OH-DPAT, CHO membranes, human 5-HT1A, read-out: 5-HT1A Receptor Binding IC50

| Compound | 5-HT1A Receptor Binding Assay % inhibition (10^−7 M) (5-HT1A; CHO membranes, human 5-HT1A) | D4 Receptor Binding Assay % inhibition (10^−7 M) (D4 human receptors) | pIC50 (5-HT1A; [1]) | pIC50 (5-HT1A) |
| --- | --- | --- | --- | --- |
| COCCn1c(=O)n(CCCCN2CCc3c([nH]c4ccccc34)C2)c2ccccc21 [Compound 7] | 77% | 91% |  |  |
| COCCn1c(=O)n(CCCCN2CC=C(c3ccccc3)CC2)c2ccccc21 [Compound 10] | 60% | 47% |  |  |
| O=c1n(CCCCN2CCN(c3ncccn3)CC2)c2ccccc2n1CCN1CCCCC1 [Compound 25] | 48% | 44% |  |  |
| O=c1n(CCCCN2CCc3c([nH]c4ccccc34)C2)c2ccccc2n1CCN1CCCCC1 [Compound 26] | 70% | 94% |  |  |
| O=c1n(CCCCN2CC=C(c3ccccc3)CC2)c2ccccc2n1CCN1CCCCC1 [Compound 29] | 57% | 83% |  |  |
| O=c1n(CCCCN2CCN(c3ccc(Cl)c(Cl)c3)CC2)c2ccccc2n1CCN1CCCCC1 [Compound 30] | 44% | 90% |  |  |
| O=c1n(CCO)c2ccccc2n1CCCCN1CC=C(c2ccccc2)CC1 [Compound 65] | 52% | 74% |  |  |
| COCCn1c(=O)n(C/C=C/CN2CCN(c3ccccn3)CC2)c2ccccc21 [Compound 296] |  |  | 8.09 |  |
| O=c1n(C/C=C\CN2CCN(c3cccc(C(F)(F)F)c3)CC2)c2ccccc2n1CCN1CCCCC1 [Compound 318] |  |  | 8.51 |  |
| O=c1n(C/C=C/CN2CCN(c3ccccn3)CC2)c2ccccc2n1CCN1CCCCC1 [Compound 330] |  |  | 8.10 |  |
| O=c1n(C/C=C/CN2CCc3c([nH]c4ccccc34)C2)c2ccccc2n1CCN1CCCCC1 [Compound 333] |  |  | 7.80 |  |
| O=c1n(C/C=C/CN2CCN(c3cccc(C(F)(F)F)c3)CC2)c2ccccc2n1CCN1CCCCC1 [Compound 335] |  |  | 8.46 |  |
| O=c1n(C/C=C/CN2CCN(c3ccccn3)CC2)c2ccccc2n1CCN1CCOCC1 [Compound 347] |  |  | 7.89 |  |
| O=c1n(C/C=C/CN2CCN(c3cccc(C(F)(F)F)c3)CC2)c2ccccc2n1CCN1CCOCC1 [Compound 352] |  |  | 8.39 |  |
| O=c1n(C/C=C\CN2CCN(c3cccc(C(F)(F)F)c3)CC2)c2ccccc2n1CCO [Compound 369] |  |  | 8.46 |  |
| O=c1n(C/C=C\CN2CC=C(c3ccccc3)CC2)c2ccccc2n1CCO [Compound 370] |  |  |  | 8.36 |
| CCNC(=O)OCCn1c(=O)n(C/C=C/CN2CCN(c3ccccn3)CC2)c2ccccc21 [Compound 415] |  |  | 7.85 |  |
| CCNC(=O)OCCn1c(=O)n(C/C=C/CN2CCN(c3cccc(Cl)c3)CC2)c2ccccc21 [Compound 416] |  |  | 8.10 |  |
| CC(=O)NCCn1c(=O)n(CCN2CCN(c3cccc(C)c3C)CC2)c2ccccc21 [Compound 446] |  |  | 8.14 |  |
| CC(=O)NCCn1c(=O)n(C/C=C\CN2CCN(c3cccc(C(F)(F)F)c3)CC2)c2ccccc21 [Compound 459] |  |  | 8.06 |  |
| CC(=O)NCCn1c(=O)n(C/C=C\CN2CCN(c3cccc(C)c3C)CC2)c2ccccc21 [Compound 468] |  |  | 8.51 |  |
| CC(=O)NCCn1c(=O)n(C/C=C\CN2CCN(c3ccccc3Cl)CC2)c2ccccc21 [Compound 472] |  |  | 8.51 |  |
| CS(=O)(=O)NCCn1c(=O)n(C/C=C\CN2CCN(c3cccc(C(F)(F)F)c3)CC2)c2ccccc21 [Compound 503] |  |  | 8.55 |  |
| CS(=O)(=O)NCCn1c(=O)n(C/C=C\CN2CC=C(c3ccccc3)CC2)c2ccccc21 [Compound 504] |  |  |  | 8.44 |
| Cc1cccc(N2CCN(C/C=C\Cn3c(=O)n(CCNS(C)(=O)=O)c4ccccc43)CC2)c1C [Compound 512] |  |  | 9.23 |  |
| CS(=O)(=O)NCCn1c(=O)n(C/C=C/CN2CCN(c3ccccn3)CC2)c2ccccc21 [Compound 520] |  |  | 8.09 |  |
| Cc1cccc(N2CCN(C/C=C/Cn3c(=O)n(CCNS(C)(=O)=O)c4ccccc43)CC2)c1 [Compound 536] |  |  | 8.02 |  |

Now from value to compound, other results behind:

| 5-HT1A Receptor Binding Assay % inhibition (10^−7 M) (5-HT1A; CHO membranes, human 5-HT1A) | D4 Receptor Binding Assay % inhibition (10^−7 M) (D4 human receptors) | pIC50 (5-HT1A; [1]) | Compound | pIC50 (5-HT1A) |
| --- | --- | --- | --- | --- |
| 56% | 38% |  | COCCn1c(=O)n(CCCCN2CCN(c3ccccc3)CC2)c2ccccc21 [Compound 1] |  |
| 48% | 90% |  | COCCn1c(=O)n(CCCCN2CCN(c3ccc(Cl)c(Cl)c3)CC2)c2ccccc21 [Compound 11] |  |
| 69% | 32% |  | COCCn1c(=O)n(CCCCN2CCN(c3ccccc3OC)CC2)c2ccccc21 [Compound 19] |  |
| 50% | 60% |  | O=c1n(CCCCN2CCN(c3ccccc3)CC2)c2ccccc2n1CCN1CCCCC1 [Compound 20] |  |
| 73% | 48% |  | O=c1n(CCCCN2CCN(c3ccccn3)CC2)c2ccccc2n1CCN1CCCCC1 [Compound 23] |  |
| 90% | 67% |  | O=c1n(CCCCN2CCN(c3cccc(Cl)c3)CC2)c2ccccc2n1CCN1CCCCC1 [Compound 24] |  |
| 89% | 35% |  | O=c1n(CCCCN2CCN(c3cccc(C(F)(F)F)c3)CC2)c2ccccc2n1CCN1CCCCC1 [Compound 28] |  |
| 92% | 78% |  | COc1ccccc1N1CCN(CCCCn2c(=O)n(CCN3CCCCC3)c3ccccc32)CC1 [Compound 38] |  |
| 36% | 42% |  | O=c1n(CCCCN2CCN(c3ccccc3)CC2)c2ccccc2n1CCN1CCOCC1 [Compound 39] |  |
| 104% | 55% |  | O=c1n(CCCCN2CCN(c3cccc(Cl)c3)CC2)c2ccccc2n1CCN1CCOCC1 [Compound 43] |  |
| 63% | 71% |  | O=c1n(CCO)c2ccccc2n1CCCCN1CCN(c2ccccc2)CC1 [Compound 56] |  |
| 75% | 51% |  | O=c1n(CCO)c2ccccc2n1CCCCN1CCN(c2ccccn2)CC1 [Compound 59] |  |
| 65% | 99% |  | O=c1n(CCO)c2ccccc2n1CCCCN1CCN(c2ccc(Cl)c(Cl)c2)CC1 [Compound 66] |  |
|  |  | 7.82 | O=c1n(C/C=C\CN2CCN(c3ccccc3)CC2)c2ccccc2n1CCN1CCCCC1 [Compound 310] |  |
|  |  | 7.36 | O=c1n(C/C=C/CN2CCN(c3ccccn3)CC2)c2ccccc2n1CCO [Compound 381] |  |
